The target in the assay is Epidermal growth factor receptor (Homo sapiens, UniProt P00533). In words: Inhibition of human EGFR incubated for 1 hrs in presence of ATP by ELISA assay. On the technique in general: In an ELISA, binding on a coated surface is turned into a signal by an enzyme label.

In general, IC50 refers to the midpoint of a concentration-inhibition curve.

Epidermal growth factor receptor, sequence (P00533 whole entry): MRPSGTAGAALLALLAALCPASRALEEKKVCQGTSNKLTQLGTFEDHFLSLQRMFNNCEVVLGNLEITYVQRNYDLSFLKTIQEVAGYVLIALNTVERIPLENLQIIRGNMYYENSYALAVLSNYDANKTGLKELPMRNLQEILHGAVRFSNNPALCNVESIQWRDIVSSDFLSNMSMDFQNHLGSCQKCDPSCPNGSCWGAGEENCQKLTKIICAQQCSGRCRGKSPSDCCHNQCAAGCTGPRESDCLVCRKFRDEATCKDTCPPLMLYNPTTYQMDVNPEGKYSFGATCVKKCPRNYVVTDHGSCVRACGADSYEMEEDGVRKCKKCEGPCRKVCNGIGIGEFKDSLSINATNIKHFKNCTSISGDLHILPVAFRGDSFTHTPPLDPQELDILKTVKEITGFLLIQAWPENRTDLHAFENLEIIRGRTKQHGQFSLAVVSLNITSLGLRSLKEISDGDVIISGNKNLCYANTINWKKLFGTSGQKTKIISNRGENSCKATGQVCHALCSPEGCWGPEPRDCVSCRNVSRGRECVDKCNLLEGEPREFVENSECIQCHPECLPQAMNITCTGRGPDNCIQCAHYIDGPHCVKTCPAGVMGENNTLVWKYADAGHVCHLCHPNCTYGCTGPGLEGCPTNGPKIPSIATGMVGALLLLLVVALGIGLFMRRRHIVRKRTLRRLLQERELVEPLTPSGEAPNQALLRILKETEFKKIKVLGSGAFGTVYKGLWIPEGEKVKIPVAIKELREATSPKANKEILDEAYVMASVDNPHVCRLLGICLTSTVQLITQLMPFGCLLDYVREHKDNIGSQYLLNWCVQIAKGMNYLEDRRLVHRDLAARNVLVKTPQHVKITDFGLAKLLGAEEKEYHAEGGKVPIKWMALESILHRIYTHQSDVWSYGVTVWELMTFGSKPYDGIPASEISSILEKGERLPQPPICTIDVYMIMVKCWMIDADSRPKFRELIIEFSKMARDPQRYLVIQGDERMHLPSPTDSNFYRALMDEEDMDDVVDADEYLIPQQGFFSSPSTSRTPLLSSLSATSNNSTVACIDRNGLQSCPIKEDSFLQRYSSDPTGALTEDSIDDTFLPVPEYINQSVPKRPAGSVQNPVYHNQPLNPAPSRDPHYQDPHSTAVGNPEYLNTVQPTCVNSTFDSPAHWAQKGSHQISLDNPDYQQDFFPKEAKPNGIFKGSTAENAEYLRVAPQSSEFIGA

For `CSCC[C@@H](NC(=O)[C@@H](NC(=O)[C@@H](NC(=O)CC(=O)N(O)C/C=C(\C)CC/C=C(\C)CCC=C(C)C)C(C)C)C(C)C)C(=O)O`, the IC50 stood at 22 nM.

For the origin of these results see BindingDB's records for PubMed 32739648 (n/a, 2020).
